Laboratory results reported in patent publication US11046699B2, “Pyrazolo-pyrimidin-amino-cycloalkyl compounds and their therapeutic uses” (RAPT THERAPEUTICS, INC., priority 2018, dated 2021).

Target: GCN2 (Homo sapiens, UniProt Q9P2K8)
Test: GCN2 enzymatic endpoint assay: phosphorylation of GFP-eIF2α measured by TR-FRET (Lanthascreen)
Format: biochemical
Conditions: tested as described in Example 77; compound and/or hydrochloride, dihydrochloride or trifluoroacetic acid salt; read-out: IC 50 Activity
Method in brief: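 Read-out is the TR-FRET ratio of acceptor signal at 520 nm to terbium donor at 495 nm, rising with antibody binding to phosphorylated GFP-eIF2α. Endpoint format: 2 μM ATP, 80 nM substrate, 90 minutes at room temperature, EDTA stop.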

Sequence of GCN2 (Q9P2K8 whole entry): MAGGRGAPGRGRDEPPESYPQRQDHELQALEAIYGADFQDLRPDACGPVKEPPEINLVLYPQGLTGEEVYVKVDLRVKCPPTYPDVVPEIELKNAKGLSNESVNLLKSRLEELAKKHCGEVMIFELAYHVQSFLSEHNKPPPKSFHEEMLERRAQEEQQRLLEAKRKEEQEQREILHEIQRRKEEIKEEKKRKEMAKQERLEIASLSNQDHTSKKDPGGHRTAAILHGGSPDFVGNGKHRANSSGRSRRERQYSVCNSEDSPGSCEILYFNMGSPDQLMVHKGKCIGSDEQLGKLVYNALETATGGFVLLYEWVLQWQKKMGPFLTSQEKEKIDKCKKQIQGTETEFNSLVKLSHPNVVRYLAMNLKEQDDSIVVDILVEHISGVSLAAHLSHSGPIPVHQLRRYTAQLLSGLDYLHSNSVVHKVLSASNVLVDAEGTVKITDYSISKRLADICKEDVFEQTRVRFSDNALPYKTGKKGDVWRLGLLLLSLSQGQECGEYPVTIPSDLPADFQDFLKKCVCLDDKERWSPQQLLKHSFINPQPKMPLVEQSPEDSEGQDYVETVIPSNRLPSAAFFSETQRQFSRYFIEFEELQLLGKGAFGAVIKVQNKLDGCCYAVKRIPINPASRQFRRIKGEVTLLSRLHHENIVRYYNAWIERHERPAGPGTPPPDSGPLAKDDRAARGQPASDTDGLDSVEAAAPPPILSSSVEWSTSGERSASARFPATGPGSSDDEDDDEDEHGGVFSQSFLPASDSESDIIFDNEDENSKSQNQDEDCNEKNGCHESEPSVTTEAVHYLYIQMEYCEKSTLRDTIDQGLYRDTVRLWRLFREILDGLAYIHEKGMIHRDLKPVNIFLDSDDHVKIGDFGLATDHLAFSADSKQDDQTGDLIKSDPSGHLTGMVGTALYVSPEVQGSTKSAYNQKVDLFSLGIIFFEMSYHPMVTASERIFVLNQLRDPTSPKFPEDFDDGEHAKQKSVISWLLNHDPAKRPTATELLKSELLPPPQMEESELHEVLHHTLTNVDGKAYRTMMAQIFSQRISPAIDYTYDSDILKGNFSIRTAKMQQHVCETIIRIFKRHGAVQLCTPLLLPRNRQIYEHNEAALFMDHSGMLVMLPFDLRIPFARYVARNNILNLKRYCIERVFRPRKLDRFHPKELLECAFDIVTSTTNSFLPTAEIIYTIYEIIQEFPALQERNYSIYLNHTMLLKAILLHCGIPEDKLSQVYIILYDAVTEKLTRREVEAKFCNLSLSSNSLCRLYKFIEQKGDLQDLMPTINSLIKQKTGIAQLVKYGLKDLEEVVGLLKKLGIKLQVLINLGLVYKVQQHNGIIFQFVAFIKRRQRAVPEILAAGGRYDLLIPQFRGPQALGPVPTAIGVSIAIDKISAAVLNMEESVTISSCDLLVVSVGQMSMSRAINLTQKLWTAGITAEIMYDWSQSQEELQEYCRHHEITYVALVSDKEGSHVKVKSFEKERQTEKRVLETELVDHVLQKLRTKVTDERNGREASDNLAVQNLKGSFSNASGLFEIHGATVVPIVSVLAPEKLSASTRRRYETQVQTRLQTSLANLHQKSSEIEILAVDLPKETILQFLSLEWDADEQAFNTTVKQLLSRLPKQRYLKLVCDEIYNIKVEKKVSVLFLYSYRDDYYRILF

Row | Compound | IC50 [nM]
1 | CNC(=O)[C@]1(C)CC[C@@H](Nc2ncc3c(Br)nn(-c4ccn5c(=O)ccnc5c4)c3n2)C1 [(1R,3R)-3-[[3-bromo-1-(4-oxopyrido[1,2-a]pyrimidin-8-yl)pyrazolo[3,4-d]pyrimidin-6-yl]amino]-N,1-dimethyl-cyclopentane-carboxamide] | 25 to 200
2 | CNC(=O)[C@]1(C)CC[C@@H](Nc2ncc3c(Br)nn(-c4ccc5ncc(NC(=O)CCOC)cc5c4)c3n2)C1 [(1R,3R)-3-[[3-bromo-1-[3-(3-methoxy-propanoylamino)-6-quinolyl]pyrazolo[3,4-d]pyrimidin-6-yl]amino]-N,1-dimethyl-cyclopentanecarboxamide] | 25 to 200
3 | CNC(=O)C1(C(C)C#N)CC[C@@H](Nc2ncc3c(Br)nn(-c4ccc(-c5nnc(C)s5)cc4)c3n2)C1 (stereo partly shown) | 25 to 200
4 | COCCNC(=O)[C@@H]1CC[C@@H](Nc2ncc3c(Br)nn(-c4cc(C(F)F)c5ncccc5c4)c3n2)C1 [(1R,3R)-3-((3-bromo-1-(8-(difluoromethyl)quinolin-6-yl)-1H-pyrazolo[3,4-d]pyrimidin-6-yl)amino)-N-(2-methoxyethyl)cyclopentane-1-carboxamide] | 25 to 200
5 | CCN1CN(C(=O)[C@@H]2CC[C@@H](Nc3ncc4c(Br)nn(-c5cc(F)c6ncccc6c5)c4n3)C2)CC1=O [1-((1R,3R)-3-((3-bromo-1-(8-fluoroquinolin-6-yl)-1H-pyrazolo[3,4-d]pyrimidin-6-yl)amino)cyclopentane-1-carbonyl)-3-ethyl-imidazolidin-4-one] | 25 to 200
6 | Cc1nnc(-c2ccc(-n3nc(Br)c4cnc(N[C@@H]5CC[C@](C)(O)C5)nc43)cc2CCC#N)s1 [3-[5-[3-bromo-6-[[(1R,3S)-3-hydroxy-3-methyl-cyclopentyl]amino]pyrazolo [3,4-d]pyrimidin-1-yl]-2-(5-methyl-1,3,4-thiadiazol-2-yl)phenyl]propanenitrile] | 25 to 200
7 | CC(C)(O)CNC(=O)[C@@H]1CC[C@@H](Nc2ncc3c(Br)nn(-c4cc(F)c5ncccc5c4)c3n2)C1 | 25 to 200
8 | N#Cc1cc(-n2nc(Br)c3cnc(N[C@@H]4CC[C@@H](C(=O)N5CCCC5)C4)nc32)cc2cccnc12 [6-(3-bromo-6-(((1R,3R)-3-(pyrrolidine-1-carbonyl)cyclopentyl)amino)-1H-pyrazolo [3,4-d]pyrimidin-1-yl)quinoline-8-carbonitrile] | 25 to 200

Further lines, results first:

Row | IC50 [nM] | Compound
9 | 25 to 200 | CNC(=O)[C@]1(C)CC[C@@H](Nc2ncc3c(Br)nn(-c4cc(CCO)c5nc(C)ccc5c4)c3n2)C1 [(1R,3R)-3-[[3-bromo-1-[8-(2-hydroxy-ethyl)-2-methyl-6-quinolyl]pyrazolo[3,4-d]pyrimidin-6-yl]amino]-N,1-dimethyl-cyclopentanecarboxamide]
10 | 25 to 200 | CNC(=O)[C@]1(C)CC[C@@H](Nc2ncc3c(Br)nn(-c4ccc(-c5ncco5)c([C@@H](C)C#N)c4)c3n2)C1 [(1R,3R)-3-[[3-bromo-1-[3-[(1R)-1-cyanoethyl]-4-oxazol-2-yl-phenyl]pyrazolo[3,4-d]pyrimidin-6-yl]amino]-N,1-dimethyl-cyclopentane-carboxamide]
11 | 25 to 200 | O=C([C@@H]1CC[C@@H](Nc2ncc3c(Br)nn(-c4ccc5ncccc5c4)c3n2)C1)N1CCS(=O)(=O)CC1 [((1R,3R)-3-((3-bromo-1-(quinolin-6-yl)-1H-pyrazolo[3,4-d]pyrimidin-6-yl)amino)cyclo-pentyl)(1,1-dioxidothiomorpholino)methanone]
12 | 25 to 200 | Cc1nnc(-c2ccc(-n3nc(Br)c4cnc(N[C@@H]5CCC(C)(C(=O)N6CCNCC6)C5)nc43)cc2)o1 (stereo partly drawn) [[(3R)-3-[[3-bromo-1-[4-(5-methyl-1,3,4-oxadiazol-2-yl)phenyl]pyrazolo[3,4-d]pyrimidin-6-yl]amino]-1-methyl-cyclo-pentyl]-piperazin-1-yl-methanone]
13 | 25 to 200 | CNC(=O)[C@]1(C)CC[C@@H](Nc2ncc3c(Br)nn(-c4ccc(C5=NCCO5)cc4)c3n2)C1 [(1R,3R)-3-[[3-bromo-1-[4-(4,5-dihydro-oxazol-2-yl)phenyl]pyrazolo[3,4-d]pyrimidin-6-yl]amino]-N,1-dimethyl-cyclopentanecarboxamide]
